In PubChem BioAssay AID624091 (Broad Institute, 2012):
Activity calls are given as the source filed them. The rule behind the calls is not given here.

Columns and labels:
Assay in all cases: GSK3 and CDK kinase inhibitor potency, dose response, selectivity assay for GSK3beta inhibitor project, biochemical, selected compounds, dry powder samples (AID 624091)
[1] = biological target: Cyclin-dependent kinase 1 (Homo sapiens) (UniProt P06493); conditions: Carna mobility shift kinase assay, LabChip, panel; CDC2/CycB1
Cyclin-dependent kinase 1 (Homo sapiens), sequence (P06493 whole entry, looked up): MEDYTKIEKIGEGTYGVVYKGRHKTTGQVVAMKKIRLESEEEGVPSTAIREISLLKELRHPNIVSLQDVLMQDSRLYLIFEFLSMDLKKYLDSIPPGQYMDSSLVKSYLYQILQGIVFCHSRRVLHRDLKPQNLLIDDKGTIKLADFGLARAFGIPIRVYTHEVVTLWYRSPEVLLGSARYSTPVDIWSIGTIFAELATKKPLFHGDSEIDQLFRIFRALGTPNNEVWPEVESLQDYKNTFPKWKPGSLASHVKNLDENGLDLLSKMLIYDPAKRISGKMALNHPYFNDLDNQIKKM

[2] = biological target: Cyclin-dependent kinase 2 (Homo sapiens) (UniProt P24941); conditions: Carna mobility shift kinase assay, LabChip, panel
[3] = biological target: Cyclin-dependent kinase 5 (Homo sapiens) (UniProt Q00535); conditions: Carna mobility shift kinase assay, LabChip, panel; CDK5/p25
Cyclin-dependent kinase 5 (Homo sapiens), sequence (Q00535 whole entry, looked up): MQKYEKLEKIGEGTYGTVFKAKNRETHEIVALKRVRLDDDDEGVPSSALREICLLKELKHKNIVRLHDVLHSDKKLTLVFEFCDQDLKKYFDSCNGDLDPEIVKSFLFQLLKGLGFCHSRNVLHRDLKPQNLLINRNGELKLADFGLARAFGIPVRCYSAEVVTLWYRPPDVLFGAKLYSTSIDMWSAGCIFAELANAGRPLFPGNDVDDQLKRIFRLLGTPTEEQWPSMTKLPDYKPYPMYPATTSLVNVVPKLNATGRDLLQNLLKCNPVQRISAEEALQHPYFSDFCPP

[4] = biological target: Glycogen synthase kinase-3 alpha (Homo sapiens) (UniProt P49840); conditions: Carna mobility shift kinase assay, LabChip, panel; GSK3a
Glycogen synthase kinase-3 alpha (Homo sapiens), sequence (P49840 whole entry, looked up): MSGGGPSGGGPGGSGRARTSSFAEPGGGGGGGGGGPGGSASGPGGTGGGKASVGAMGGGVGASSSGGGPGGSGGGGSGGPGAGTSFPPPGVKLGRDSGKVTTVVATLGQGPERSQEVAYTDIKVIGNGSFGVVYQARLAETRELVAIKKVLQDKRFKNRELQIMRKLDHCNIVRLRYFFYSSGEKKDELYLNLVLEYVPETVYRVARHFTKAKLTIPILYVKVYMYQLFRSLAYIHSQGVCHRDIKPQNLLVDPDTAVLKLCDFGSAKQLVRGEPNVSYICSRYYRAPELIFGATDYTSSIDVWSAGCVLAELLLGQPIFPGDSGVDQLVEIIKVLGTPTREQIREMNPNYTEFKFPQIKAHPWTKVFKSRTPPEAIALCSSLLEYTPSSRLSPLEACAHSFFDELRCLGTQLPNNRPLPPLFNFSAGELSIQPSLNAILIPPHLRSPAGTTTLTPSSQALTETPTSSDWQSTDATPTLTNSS

[5] = biological target: Glycogen synthase kinase-3 beta (Homo sapiens) (UniProt P49841); conditions: Carna mobility shift kinase assay, LabChip, panel; GSK3b
Glycogen synthase kinase-3 beta (Homo sapiens), sequence (P49841 whole entry, looked up): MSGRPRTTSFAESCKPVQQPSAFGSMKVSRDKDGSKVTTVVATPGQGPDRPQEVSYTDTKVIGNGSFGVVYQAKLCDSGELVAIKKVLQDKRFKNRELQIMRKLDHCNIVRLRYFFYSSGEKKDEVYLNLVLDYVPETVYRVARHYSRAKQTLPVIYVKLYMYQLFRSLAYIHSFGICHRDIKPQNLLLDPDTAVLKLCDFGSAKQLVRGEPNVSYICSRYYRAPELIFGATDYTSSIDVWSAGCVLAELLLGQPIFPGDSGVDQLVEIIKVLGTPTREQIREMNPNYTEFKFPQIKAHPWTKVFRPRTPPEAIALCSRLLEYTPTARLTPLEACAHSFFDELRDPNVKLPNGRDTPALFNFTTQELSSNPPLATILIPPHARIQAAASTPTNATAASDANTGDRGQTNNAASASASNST

IC50 [1] | IC50 ([2]; CDK2/CycA2) | IC50 ([2]; CDK2/CycE1) | IC50 [3] | IC50 [4] | IC50 [5] | Structure (SMILES)
> 10000 nM (inactive) | > 10000 nM (inactive) | > 10000 nM (inactive) | > 10000 nM (inactive) | inactive | inactive | Cc1[nH]nc2c1[C@H](c1ccccc1C(F)(F)F)C1=C(CC(C)(C)CC1=O)N2
839 nM | 561 nM | 427 nM | 127 nM | 7.79 nM | 15.5 nM | Cc1[nH]nc2c1[C@@H](c1ccccc1C(F)(F)F)C1=C(CC(C)(C)CC1=O)N2
> 10000 nM (inactive) | inactive | inactive |  | 13.2 nM | 12.4 nM | COc1ccccc1[C@@H]1C2=C(CC(C)(C)CC2=O)Nc2n[nH]c(C(F)(F)F)c21
> 10000 nM (inactive) | > 10000 nM (inactive) | > 10000 nM (inactive) |  | 980 nM | 613 nM | COc1ccccc1[C@H]1C2=C(CC(C)(C)CC2=O)Nc2n[nH]c(C(F)(F)F)c21
> 10000 nM (inactive) | inactive | inactive |  | 23.4 nM | 22.8 nM | COc1ccccc1C1C2=C(CC(C)(C)CC2=O)Nc2n[nH]c(C(F)(F)F)c21 (stereo not drawn)
inactive | inactive | 808 nM | 223 nM | 14.6 nM | 26.8 nM | Cc1[nH]nc2c1C(c1ccccc1C(F)(F)F)C1=C(CC(C)(C)CC1=O)N2 (stereo not drawn)
